Experimental data reported in patent publication US5712297A, “Piperdine compounds and their preparation and use” (Novo Nordisk A/S, priority 1989, dated 1998).
Where a name gives a salt, the structure may show the parent alone.

What follows are compounds tested against muscarinic acetylcholine receptors (assay: Inhibition of specific binding of 3H-Oxotremorine-M (3H-Oxo)). Conditions: rat cortex; 3H-Oxotremorine 1.0 nM; 20 mM Hepes pH 7.4; 30 min at 25° C.
Set-up: species or system rat (male Wistar
Method: The pharmacological properties of the compounds of the present invention (Formula I) can be illustrated by determining their capability to inhibit the specific binding of ^3 H-Oxotremorine-M (^3 H-Oxo).
^3 H-Oxo labels muscarinic receptors in the CNS (with a preference for agonist domaines of the receptors). Three different sites are labelled by 3H-Oxo. These sites have affinity of 1.0, 20 and 3000 nM, respectively. Using the present experimental conditions only the high and medium affinity sites are determined. The inhibitory effects of compounds on ^3 H-Oxo binding reflects the affinity for muscarinic acetylcholine receptors.
All preparations are performed at 0°-4° C. unless otherwise indicated. Fresh cortex (0.1-1 g) from male Wistar rats (150-250 g) is homogenized for 5-10 s in 10 ml 20 mM Hepes pH: 7.4, with an Ultra-Turrax homogenizer. The homogenizer is rinsed with 10 ml of buffer and the combined suspension centrifuged for 15 min at 40,000×g. The pellet is washed three times with buffer. In each step the pellet is homogenized as before in 2×10 ml of buffer and centrifuged for 10 min at 40,000×g. The final pellet is homogenized in 20 mM Hepes pH: 7.4 (100 ml per g of original tissue) and used for binding assay. Aliquots of 0.5 ml is added 25 μl of test solution and 25 μl of ^3 H-Oxotremorine (1.0 nM, final concentration) mixed and incubated for 30 min at 25° C. Non-specific binding is determined in triplicate using Arecoline (1 μg/ml, final concentration) as the test substance. After incubation samples are added 5 ml of ice-cold buffer and poured directly onto Whatman GF/C glass fiber filters under suction and immediately washed 2 times with 5 ml of ice-cold buffer. The amount of radioactivity on the filters are determined by conventional liquid scintillation counting. Specific binding is total binding minus non-specific binding. Test substances are dissolved in 10 ml water (if necessary heated on a steam-bath for less than 5 minutes) at a concentration of 2.2 mg/ml. 25-75% inhibition of specific binding must be obtained before calculation of IC50.
The test value will be given as IC50 (the concentration (ng/ml) of the test substance which inhibits the specific binding of ^3 H-Oxo by 50%). [formula] where Co is specific binding in control assays and Cx is the specific binding in the test assay. (The calculations assume normal mass-action kinetics).

SMILES | Inhibition in vitro OXO BINDING (IC50: concentration which inhibits the specific binding of 3H-Oxo by 50%) [ng/mL]
CCOc1nsnc1C1=CCCN(C)C1.O=C(O)C(=O)O [Compound 2, 3-(4-ethoxy-1,2,5-thiadiazol-3-yl)-1,2,5,6-tetrahydro-1-methylpyridine oxalate] | 0.4
CCCCOc1nsnc1C1=CCCN(C)C1.O=C(O)C(=O)O [Compound 4, 3-(4-butoxy-1,2,5-thiadiazol-3-yl)-1,2,5,6-tetrahydro-1-methylpyridine oxalate] | 0.5
CC(C)COc1nsnc1C1=CCCN(C)C1.O=C(O)C(=O)O [Compound 7, 1,2,5,6-tetrahydro-3-(4-isobutoxy-1,2,5-thiadiazol-3-yl)-1-methylpyridine oxalate] | 1.7
C=CCCOc1nsnc1C1=CCCN(C)C1.O=C(O)C(=O)O [Compound 11, 3-(4-(3-butenyloxy)-1,2,5-thiadiazol-3-yl)-1,2,5,6-tetrahydro-1-methylpyridine oxalate] | 0.9
COCCOc1nsnc1C1=CCCN(C)C1.O=C(O)C(=O)O [Compound 15, 1,2,5,6-tetrahydro-3-(4-methoxyethoxy-1,2,5-thiadiazol-3-yl)-1-methylpyridine oxalate] | 0.6
Cl.Clc1nsnc1C1=CCCNC1 [Compound 17, 3-(4-chloro-1,2,5-thiadiazol-3-yl)-1,2,5,6-tetrahydropyridine hydrochloride] | 19.0
CCCCOc1nsnc1C1=CCCNC1.O=C(O)C(=O)O [Compound 18, 3-(4-butoxy-1,2,5-thiadiazol-3-yl)-1,2,5,6-tetrahydropyridine oxalate] | 3.6
CCN1CCC=C(c2nsnc2Cl)C1.O=C(O)C(=O)O [Compound 19, 3-(4-chloro-1,2,5-thiadiazol-3-yl)-1-ethyl-1,2,5,6-tetrahydropyridine oxalate] | 92
CCOc1nsnc1C1=CCCN(CC)C1.O=C(O)C(=O)O [Compound 20, 3-(4-ethoxy-1,2,5-thiadiazol-3-yl)-1-ethyl-1,2,5,6-tetrahydropyridine oxalate] | 5.9
CC#CCCOc1nsnc1C1=CCCN(C)C1.O=C(O)C(=O)O [Compound 22, 3-(4-(3-pentynyloxy)-1,2,5-thiadiazol-3-yl)-1,2,5,6-tetrahydro-1-methylpyridine oxalate] | 0.4
C=CCCCOc1nsnc1C1=CCCN(C)C1.O=C(O)C(=O)O [Compound 23, 3-(4-(4-pentenyloxy)-1,2,5-thiadiazol-3-yl)-1,2,5,6-tetrahydro-1-methylpyridine oxalate] | 0.3
C=CCOc1nsnc1C1=CCCN(C)C1.O=C(O)C(=O)O [Compound 24, 3-(4-(2-propenyloxy)-1,2,5-thiadiazol-3-yl)-1,2,5,6-tetrahydro-1-methylpyridine oxalate] | 0.4
CCCCCCCCOc1nsnc1C1=CCCN(C)C1 [Compound 25, 3-(4-octyloxy-1,2,5-thiadiazol-3-yl)-1,2,5,6-tetrahydro-1-methylpyridineoxalate] | 12
CC(C)=CCOc1nsnc1C1=CCCN(C)C1.O=C(O)C(=O)O [Compound 27, 3-(4-(3-methyl-2-butenyloxy)-1,2,5-thiadiazol-3-yl)-1,2,5,6-tetrahydro-1-methylpyridine oxalate] | 0.8
C=CC(C)Oc1nsnc1C1=CCCN(C)C1 (stereo not shown) [Compound 28, 3-(4-(3-butenyl-2-oxy)-1,2,5-thiadiazol-3-yl)-1,2,5,6-tetrahydro-1-methylpyridine oxalate] | 1.3
CC/C=C/CCOc1nsnc1C1=CCCN(C)C1.O=C(O)C(=O)O [Compound 30, trans-3-(4-(3-hexenyloxy)-1,2,5-thiadiazol-3-yl)-1,2,5,6-tetrahydro-1-methylpyridine oxalate] | 0.4
CC/C=C\COc1nsnc1C1=CCCN(C)C1.O=C(O)C(=O)O [Compound 31, cis-3-(4-(2-pentenyloxy)-1,2,5-thiadiazol-3-yl)-1,2,5,6-tetrahydro-1-methylpyridine oxalate] | 0.7

Continued, values first:

Inhibition in vitro OXO BINDING (IC50: concentration which inhibits the specific binding of 3H-Oxo by 50%) [ng/mL] | SMILES
1.5 | COc1nsnc1C1=CCCN(C)C1.O=C(O)C(=O)O [Compound 1, 1,2,5,6-tetrahydro-3-(4-methoxy-1,2,5-thiadiazol-3-yl)-1-methylpyridine oxalate]
0.2 | CCCOc1nsnc1C1=CCCN(C)C1.O=C(O)C(=O)O [Compound 3, 1,2,5,6-tetrahydro-1-methyl-3-(4-propoxy-1,2,5-thiadiazol-3-yl)pyridine oxalate]
3.5 | CC(C)Oc1nsnc1C1=CCCN(C)C1 [Compound 5, 1,2,5,6-tetrahydro-3-(4-isopropoxy-1,2,5-thiadiazol-3-yl)-1-methylpyridineoxalate]
1.9 | CCCCCOc1nsnc1C1=CCCN(C)C1.O=C(O)C(=O)O [Compound 6, 1,2,5,6-tetrahydro-1-methyl-3-(4-pentyloxy-1,2,5-thiadiazol-3-yl)pyridine oxalate]
1.9 | CC(C)CCOc1nsnc1C1=CCCN(C)C1.O=C(O)C(=O)O [Compound 8, 1,2,5,6-tetrahydro-3-(4-isopentyloxy-1,2,5-thiadiazol-3-yl)-1-methylpyridine oxalate]
3.6 | CCCCCCOc1nsnc1C1=CCCN(C)C1 [Compound 9, 3-(4-hexyloxy-1,2,5-thiadiazol-3-yl)-1,2,5,6-tetrahydro-1-methylpyridineoxalate]
2.3 | CN1CCC=C(c2nsnc2OCc2ccccc2)C1.O=C(O)C(=O)O [Compound 10, 3-(4-benzyloxy-1,2,5-thiadiazol-3-yl)-1,2,5,6-tetrahydro-1-methylpyridine oxalate]
0.3 | CC#CCOc1nsnc1C1=CCCN(C)C1.O=C(O)C(=O)O [Compound 12, 3-(4-(2-butynyloxy)-1,2,5-thiadiazol-3-yl)-1,2,5,6-tetrahydro-1-methylpyridine oxalate]
0.3 | C#CCOc1nsnc1C1=CCCN(C)C1.O=C(O)C(=O)O [Compound 13, 1,2,5,6-tetrahydro-1-methyl-3-(4-propargyloxy-1,2,5-thiadiazol-3-yl)pyridine oxalate]
0.4 | CN1CCC=C(c2nsnc2OCC2CC2)C1.O=C(O)C(=O)O [Compound 14, 3-(4-cyclopropylmethoxy-1,2,5-thiadiazol-3-yl)-1,2,5,6-tetrahydro-1-methylpyridine oxalate]
3.3 | CN1CCC=C(c2nsnc2Cl)C1.O=C(O)C(=O)O [Compound 16, 3-(4-chloro-1,2,5-thiadiazol-3-yl)-1,2,5,6-tetrahydro-1-methylpyridine oxalate]
2.4 | CCCCCCCOc1nsnc1C1=CCCN(C)C1.O=C(O)C(=O)O [Compound 21, 3-(4-heptyloxy-1,2,5-thiadiazol-3-yl)-1,2,5,6-tetrahydro-1-methylpyridine oxalate]
0.4 | CCC#CCCOc1nsnc1C1=CCCN(C)C1.O=C(O)C(=O)O [Compound 26, 3-(4-(3-hexynyloxy) -1,2,5-thiadiazol-3-yl)-1,2,5,6-tetrahydro-1-methylpyridine oxalate]
0.6 | CC=CCCCOc1nsnc1C1=CCCN(C)C1.O=C(O)C(=O)O [Compound 29, 3-(4-(4-hexenyloxy)-1,2,5-thiadiazol-3-yl)-1,2,5,6-tetrahydro-1-methylpyridine oxalate]
